Patent US9370189B2, “Controlling Pseudomonas aeruginosa persister cells with GM-CSF” (priority 2012, dated 2016)

Experiments:
[1] = tested on: planktonic cells of PDO300; test: Synergistic effect of GM-CSF, tobramycin and alginate lyase on planktonic cells of PDO300; assay type: cell-based, Pseudomonas aeruginosa
Excerpt: This Example describes the use of alginate lyase as an enzyme to break down the extra alginate in order to understand the effect of the presence of alginate in PDO300 on the GM-CSF and antibiotic treatment.
To improve the effects of GM-CSF and antibiotics on the alginate overproducing PDO300, alginate lyase was used as an enzyme to break down the extra alginate. Alginate lyase is an enzyme which depolymerizes the alginate polymer by […] reaction. The alginate lyase used in the experiment was alginate lyase from Flavobacterium sp. (Sigma, catalog no. A1603-100MG). The experimental method was similar as mentioned above for the combined effect of GM-CSF and antibiotic. The alginate lyase was added as 0.05 mg/mL.
In brief, the experiment was performed in exponential phase with an optical density at 600 nm (OD600) of 0.3 to 0.4. After preparing an overnight culture of the tested strain in 25 ml LB medium, a subculture was prepared with an OD600 of 0.01 in 50 mL LB medium. The subculture was incubated at 37° C. with shaking at 200 rpm for 3-4 h, till OD600 of 0.3 to 0.4 was reached. The exponential phase subculture was then divided equally into two centrifuge tubes. The subcultures were washed twice with 0.85% NaCl buffer by vortexing and then centrifuging at 4° C., 8000 rpm for 10 min each time. The washed subcultures were resuspended in 25 mL 0.85% NaCl buffer and vortexed gently for 1 min. One of the subculture was selected for isolation of persisters by adding 200 μg/mL ciprofloxacin. After adding the antibiotic, the subculture was incubated at 37° C. with shaking at 200 rpm for 3.5 h. The other subculture was used to quantify the total number of viable cells.
For testing the direct impact of GM-CSF on the total viable cells, 1 mL of the subculture was added in 24 microcentrifuge tubes; 12 were control and the other 12 were GM-CSF treatment samples. In the treatment samples, GM-CSF was added to a concentration of 2.43 pg/mL. The control samples were supplemented with the same concentration of PBS and BSA as present in 2.43 pg/mL GM-CSF samples. […]

P. aeruginosa PAO1 = test: Effect of GM-CSF on planktonic PAO1 total population and persister cells at stationary phase, co-treatment with antibiotic; assay type: cell-based, Pseudomonas aeruginosa
E. coli K12 biofilm = test: Effect of GM-CSF on 24-h E. coli K12 biofilm, alone and with antibiotic; assay type: cell-based, Escherichia coli
Procedure: This Example describes the treatment of biofilms made from P. aeruginosa PAO1, PDO300 and Escherichia coli K12, with GM-CSF introduced directly or together with an antibiotic to test the synergy.
In brief, after preparing an overnight culture, it was subcultured to an initial OD600 of 0.01 to a total volume of 20 mL M63 medium (for PAO1 and PDO300) or 20 ml LB medium (for E. coli K12) in a petri dish with 316L stainless steel coupons (1.75 cm×1 cm). The biofilm was grown for 24 h at 37° C. without shaking. After incubation, the coupons were washed by gently dipping in 0.85% NaCl twice using tweezers and were placed in new empty petri dishes.
To test the synergistic effects between GM-CSF (2.43 pg/mL or 0.17 pM) and antibiotics, a total of 8 coupons were analyzed. These 8 coupons were placed in 4 petri dishes (2 coupons in each dish). The two dishes were labeled as control and the other two as treatment samples. In the treatment samples, GM-CSF was added to 20 mL of 0.85% NaCl to a concentration of 2.43 pg/mL (or 0.17 pM). The control samples were supplemented with the same amount of PBS and BSA as present in the samples with 2.43 pg/ml (or 0.17 pM) GM-CSF. The coupons were incubated at 37° C. for 2 h.
After incubation, a control dish and a treatment dish was selected for studying the killing effect of 2.43 pg/ml GM-CSF on biofilm cells. Each coupon after gentle washing with 0.85% NaCl buffer, was placed in a test tube with 3 mL 0.85% NaCl buffer in each. They were sonicated (B200, Sinosonic Industrial Co., Ltd., Taiwan) for 4 mins to release the biofilm cells in the buffer. After vortexing for 1 min, they were plated on LB agar plates using drop plate method. The CFU was counted after incubation at 37° C. for 24 h to count the total number of viable cells. Furthermore, the synergistic effect of antibiotics with GM-CSF was evaluated with additional 3.5 h treatment with antibiotic at 37° C. After incubation, drop plate method was performed and the CFU was counted to understand if there is a synergistic effect.

Substance: GM-CSF: granulocyte macrophage-colony stimulating factor, a cytokine secreted by macrophages; recombinant human GM-CSF (R&D systems) in binding tests
- persisters changed by ([1]; planktonic PDO300, 2.43 pg/mL GM-CSF and 50 μg/mL tobramycin): −63.6±5.4%
- persisters changed by ([1]; planktonic PDO300, 2.43 pg/mL GM-CSF, 50 μg/mL tobramycin and 0.05 mg/mL Alginate lyase): −74.1±3.3%
- persisters changed by ([1]; planktonic cells (Example on PDO300; sentence prints PAO1), 2.43 pg/mL GM-CSF alone): −15.0±4.2%
- % change in avg. CFU/mL by GM-CSF (compared to GM-CSF free control) (P. aeruginosa PAO1; persisters, 1.7 pM GM-CSF, 200 μg/mL ciprofloxacin): −53.8 ± 16.1%
- % change in avg. CFU/mL by GM-CSF (compared to GM-CSF free control) (P. aeruginosa PAO1; persisters, 1.7 pM GM-CSF, 200 μg/mL gentamicin): −12.7 ± 8.8%
- % change in avg. CFU/mL by GM-CSF (compared to GM-CSF free control) (P. aeruginosa PAO1; persisters, 1.7 pM GM-CSF, 200 μg/mL tobramycin): −82.7 ± 2.3%
- % change in avg. CFU/mL by GM-CSF (compared to GM-CSF free control) (P. aeruginosa PAO1; persisters, 17 pM GM-CSF, 200 μg/mL ciprofloxacin): −74.0 ± 2.9%
- % change in avg. CFU/mL by GM-CSF (compared to GM-CSF free control) (P. aeruginosa PAO1; persisters, 17 pM GM-CSF, 200 μg/mL gentamicin): −25.4 ± 10.6%
- % change in avg. CFU/mL by GM-CSF (compared to GM-CSF free control) (P. aeruginosa PAO1; persisters, 17 pM GM-CSF, 200 μg/mL tetracycline): −91.2 ± 3.2%
- % change in avg. CFU/mL by GM-CSF (compared to GM-CSF free control) (P. aeruginosa PAO1; persisters, 17 pM GM-CSF, 200 μg/mL tobramycin): −86.5 ± 1.7%
- % change in avg. CFU/mL by GM-CSF (compared to GM-CSF free control) (P. aeruginosa PAO1; total viable cells, 1.7 pM GM-CSF, 200 μg/mL ciprofloxacin): −19.5 ± 15.6%
- % change in avg. CFU/mL by GM-CSF (compared to GM-CSF free control) (P. aeruginosa PAO1; total viable cells, 1.7 pM GM-CSF, 200 μg/mL gentamicin): −13.1 ± 7.4%
- % change in avg. CFU/mL by GM-CSF (compared to GM-CSF free control) (P. aeruginosa PAO1; total viable cells, 1.7 pM GM-CSF, 200 μg/mL tobramycin): −9.4 ± 20.0%
- % change in avg. CFU/mL by GM-CSF (compared to GM-CSF free control) (P. aeruginosa PAO1; total viable cells, 17 pM GM-CSF, 200 μg/mL ciprofloxacin): −10.3 ± 21.5%
- % change in avg. CFU/mL by GM-CSF (compared to GM-CSF free control) (P. aeruginosa PAO1; total viable cells, 17 pM GM-CSF, 200 μg/mL gentamicin): −15.9 ± 7.4%
- % change in avg. CFU/mL by GM-CSF (compared to GM-CSF free control) (P. aeruginosa PAO1; total viable cells, 17 pM GM-CSF, 200 μg/mL tetracycline): −1.0 ± 12.4%
- % change in avg. CFU/mL by GM-CSF (compared to GM-CSF free control) (P. aeruginosa PAO1; total viable cells, 17 pM GM-CSF, 200 μg/mL tobramycin): +3.1 ± 18.6%
- % change in avg. CFU/ml after adding factor + CIP (E. coli K12 biofilm; 24-h E. coli K12 biofilm, 2.43 pg/mL GM-CSF with 100 μg/mL ciprofloxacin): +4.8%
- % change in avg. CFU/ml after adding factor + TET (E. coli K12 biofilm; 24-h E. coli K12 biofilm, 2.43 pg/mL GM-CSF with 100 μg/mL tetracycline): +3.6%
- % change in avg. CFU/ml after adding factor + TOB (E. coli K12 biofilm; 24-h E. coli K12 biofilm, 2.43 pg/mL GM-CSF with 100 μg/mL tobramycin): +4.2%
- % change in avg. CFU/ml after adding factor + GEN (E. coli K12 biofilm; 24-h E. coli K12 biofilm, 2.43 pg/mL GM-CSF with 125 μg/mL gentamicin): +8.1%
- average CFU/mL of biofilm cells changed by (E. coli K12 biofilm; E. coli K12 biofilm, 2.43 pg/mL GM-CSF alone, average of 2 experiments): +4.83%
- average CFU/ml of biofilm cells changed by (E. coli K12 biofilm; E. coli K12 biofilm, 2.43 pg/mL GM-CSF in the presence of 100 μg/mL ciprofloxacin): +1.2%
- average CFU/ml of biofilm cells changed by (E. coli K12 biofilm; E. coli K12 biofilm, 2.43 pg/mL GM-CSF in the presence of 100 μg/mL tetracycline): −2.4%
- average CFU/ml of biofilm cells changed by (E. coli K12 biofilm; E. coli K12 biofilm, 2.43 pg/mL GM-CSF in the presence of 100 μg/mL tobramycin): +0.6%
- average CFU/ml of biofilm cells changed by (E. coli K12 biofilm; E. coli K12 biofilm, 2.43 pg/mL GM-CSF in the presence of 125 μg/mL gentamicin): +1.9%
